How the values were obtained:
human β3-AR = target: T1, human β3-AR (Homo sapiens, UniProt P13945); assay: cAMP accumulation (SPA) in CHO cells transfected with human β3-AR; format: cell-based; details: for EC50: CHO cells transfected with human β3-AR, cAMP, 30 min at 37° C., 10^-9 M to 10^-5 M; for IA(β3): maximal response of compound relative to maximal response of isoproterenol at 10^-5 M
T1 construct: Full-length β3-AR clones (402 amino acids) containing the last 6 amino acids of hβ3-AR; expressed in transfected cells; host or cells: CHO cells
Description: Binding to the receptors was measured in Chinese Hamster ovary (CHO) cells that were transfected with β1-, β2-, and β3-AR's. The following briefly summarizes the procedures used and results obtained. Cloning of Human β3-AR Genomic DNA: cDNA was constructed by ligating four polymerase chain reaction (PCR) products using the following primers: an ATG-Narl fragment, sense primer [NT] and anti-sense primer [NT]; a […] fragment, [NT] as sense and [NT] as anti-sense primer; an […] fragment, sense primer [NT] and anti-sense primer [NT] and a Styl-TAG fragment, with sense primer [NT] and anti-sense primer [NT]. The corresponding primer sequences are described in Mantzoros, C. S., et.al., Diabetes, 1996, 45, 909-914. The four fragments are ligated into a pUC 18 plasmid (Gibco-BRL) and sequenced. Full-length β3-AR clones (402 amino acids) containing the last 6 amino acids of hβ3-AR are prepared with the β3-β[…]3 from ATTC. Binding Procedure: Clones expressing receptor levels of 70 to 110 fmoles/mg protein were used in the test procedures. CHO cells were grown in 24-well tissue culture plates in Dulbecco's Modified Eagle Media with 10% fetal bovine serum, MEM non-essential amino acids, Penicillin-Streptomycin and Geneticin. On the day of test procedure, growth medium was replaced with preincubation media (Dulbecco's Modified Eagle Media) and incubated for 30 minutes at 37° C. […] Isoproterenol (10^-5 M) was used as an internal standard for comparison of activity. Cells were incubated at 37° C. on a rocker for 30 min with the β3-AR transfected cells and 15 min with β1-AR and β2-AR transfected cells. Incubation was stopped by the addition of 0.2N HCl and the acid was neutralized with 2.5N NaOH. The plates, containing the cells and neutralized media, were stored at -20 ° C. until ready to test for cAMP using the SPA test kit (Amersham). Data Analysis and Results: Data collected from the SPA test procedure were analyzed as percent of the maximal isoproterenol response at 10^-5 M. Activity curves were plotted using the SAS statistical and graphics software. […] IA=% activity compound % activity isoproterenol

T1 sequence (P13945 whole entry): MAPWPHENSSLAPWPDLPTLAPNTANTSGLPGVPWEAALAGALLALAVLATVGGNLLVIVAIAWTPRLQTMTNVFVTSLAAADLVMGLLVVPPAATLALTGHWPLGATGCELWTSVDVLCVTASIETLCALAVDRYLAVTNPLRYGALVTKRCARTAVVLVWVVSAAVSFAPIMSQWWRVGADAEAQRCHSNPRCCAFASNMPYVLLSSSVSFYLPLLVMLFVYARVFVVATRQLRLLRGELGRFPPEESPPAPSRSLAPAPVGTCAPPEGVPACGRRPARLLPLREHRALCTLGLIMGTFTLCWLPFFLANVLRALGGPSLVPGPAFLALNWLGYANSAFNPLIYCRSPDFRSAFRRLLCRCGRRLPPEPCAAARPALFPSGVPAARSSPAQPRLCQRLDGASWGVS

Row | Compound | EC50 (human β3-AR) [nM] | IA(β3) (human β3-AR) | melting point
1 | O=S1(=O)N=C(NCCc2ccc(F)cc2)C(Nc2ccc(N3CCC(NC[C@H](O)COc4ccc(O)cc4)CC3)cc2)=N1 [Example 5, 4-((2S)-3-[1-(4-{4-[2-(4-Fluoro-phenyl)-ethylamino]-1,1-dioxo-1H-1.lambda(6).-[1,2,5]thiadiazol-3-ylamino}-phenyl)-piperidin-4-ylamino]-2-hydroxy-propoxy}-phenol] | 8 | 1.0 | 
2 | COC(=O)C(Cc1ccccc1)NC1=NS(=O)(=O)N=C1Nc1ccc(N2CCC(NCC(O)c3ccc(O)c(NS(C)(=O)=O)c3)CC2)cc1 (hydrate or solvate) [Example 6, Methyl 2-{[4-(4-{4-[((2R)-2-hydroxy-2-{4-hydroxy-3-[(methylsulfonyl)amino]phenyl}ethyl)amino]piperidin-1-yl}anilino)-1,1-dioxido-1,2,5-thiadiazol-3-yl]amino}-3-yl]amino}-3-phenylpropanoate] |  |  | 210 °C (dec.)
3 | COc1ccc(CCNC2=NS(=O)(=O)N=C2Nc2ccc(N3CCC(NC[C@H](O)COc4ccc(O)cc4)CC3)cc2)cc1 [Example 1] | 633 | 0.69 | 
4 | CCCCCCCCNC1=NS(=O)(=O)N=C1Nc1ccc(N2CCC(NC[C@H](O)COc3ccc(O)cc3)CC2)cc1 [Example 4, 4-((2S)-2-Hydroxy-3-{1-[4-(4-octylamino-1,1-dioxo-1H-1.lambda(6)-[1,2,5]thiadiazol-3ylamimo)-phenyl]-piperidin-4-ylamino}-propoxy)-phenol] | 4 | 0.96 | 198 to 204 °C
5 | COC(=O)[C@@H](Cc1ccccc1)Nc1c(Nc2ccc(N3CCC(NC[C@H](O)c4ccc(O)c(NS(C)(=O)=O)c4)CC3)cc2)c(=O)c1=O (hydrate or solvate) [Example 2, Methyl (2R)-2-{[2-(4-{4-[((2R)-2-hydroxy-2-{4-hydroxy-3-[(methylsulfonyl)amino]phenyl}ethyl)amino]piperidin-1-yl}anilino)-3,4-dioxocyclobut-1-en-1-yl]amino}-3-phenylpropanoate] |  |  | 240 °C (dec.)
6 | COC(=O)C(Cc1ccccc1)NC1=NS(=O)(=O)N=C1Nc1ccc(N2CCC(NCC(O)c3ccc(O)c(NS(C)(=O)=O)c3)CC2)cc1 [Example 6, Methyl 2-{[4-(4-{4-[((2R)-2-hydroxy-2-{4-hydroxy-3-[(methylsulfonyl)amino]phenyl}ethyl)amino]piperidin-1-yl}anilino)-1,1-dioxido-1,2,5-thiadiazol-3-yl]amino}-3-yl]amino}-3-phenylpropanoate] | 42 | 0.9 | 
7 | COC(=O)CNC1=NS(=O)(=O)N=C1Nc1ccc(N2CCC(NC[C@H](O)c3ccc(O)c(NS(C)(=O)=O)c3)CC2)cc1 [Example 3, Methyl {[4-(4-{4-[((2R)-2-hydroxy-2-{4-hydroxy-3-[(methylsulfonyl)amino]phenyl}ethyl)amino]piperidin-1-yl}anilino)-1,1-dioxido1,2,5-thiadiazol-3-yl]amino}acetate] | 99 | 0.40 | 120 °C (dec.)
8 | COC(=O)[C@@H](Cc1ccccc1)Nc1c(Nc2ccc(N3CCC(NC[C@H](O)c4ccc(O)c(NS(C)(=O)=O)c4)CC3)cc2)c(=O)c1=O [Example 2, Methyl (2R)-2-{[2-(4-{4-[((2R)-2-hydroxy-2-{4-hydroxy-3-[(methylsulfonyl)amino]phenyl}ethyl)amino]piperidin-1-yl}anilino)-3,4-dioxocyclobut-1-en-1-yl]amino}-3-phenylpropanoate] | 200 | 0.80 | 

Reference: patent US6509358B2, “Piperidino-phenyl amino squarate and thiadiazole dioxide beta-3 adrenergic receptor agonists” (Wyeth, priority 2000, dated 2003)
